Patent US10441557B2, “Germicidal compositions comprising carboxylic acid mixture and use as topical disinfectants” (priority 2012, dated 2019)

Test: Freeze-thaw stability of concentrates
Assay type: physicochemical
Protocol: In this example, concentrates according to the present invention were prepared comprising various surfactants and the effect of those surfactants on the freeze-thaw stability of the samples was determined. The concentrates were prepared for an intended dilution ratio of 1 part concentrate to 39 parts water. Each formulation tested comprised 9.2 wt. % formic acid, 9.4 wt. % lactic acid, 23.2 wt. % sodium α-olefin sulfonate (SAOS), and 21 wt. % of the indicated surfactant, with water comprising the balance.
The samples of each formulation were placed in bottles filled to 1.5 inches from the top of the bottles. The bottles containing the samples were placed in a freezer for one day, and removed from the freezer and thawed the subsequent day. The homogeneity of each sample upon thawing was noted. A formulation was considered acceptable if a homogeneous solution was observed upon thawing.

Cocamidopropylbetaine
Physical Stability After 1 Freeze-Thaw Cycle: Non-homogeneous
